Among the data in US20250100993A1, “2-SUBSTITUTED THIAZOLE HSD17B13 INHIBITORS AND USES THEREOF” (Inipharm, Inc., priority 2022, published 2025) are HSD17B2 fold selectivity, Ki and HSD17B14 fold selectivity values, retold here.

Assay type in all cases: biochemical
One assay concerns the target HSD17B2 (Homo sapiens (Human), UniProt P37059). The experiment in a line: HSD17B2 activity via detection of NADH product (NAD-Glo luminescence). To be noted: selectivity for HSD17B13 over HSD17B2. Here is the method:
The fluorescence based detection assay monitors the conversion of the co-factor NAD^+ to NADH, which occurs coincident with the conversion of estradiol to estrone by HSD17B2. These assays were performed in 384 well plates (Greiner V-shape PP-microplate). The 20 μl reaction volume contained: 0.7 μM estradiol (E2); 6 mM NAD^+ (Sigma); 250 nM HSD17B2 enzyme (Origene; Cat #TP303293); 0.25 M potassium phosphate buffer pH 7.4, 0.75% vehicle (DMSO). Reactions were incubated for 2 hours at 37° C., and the reaction was stopped by freezing the reaction plates at −80° C. Zero time samples were frozen immediately.
The conversion of NAD^+ to NADH was quantitated using NAD-Glo kits (Promega; Cat #G9062) according to the manufacturers' instructions. A volume of 15 μL of enzyme reaction mixture was added to 15 μL of reconstituted Glo reagent, and the plates were incubated for 30 minutes at room temperature. Luminescence was quantitated on a Tecan Spark Reader®. A standard curve of NADH ([…]) in potassium phosphate buffer pH 7.4/1% DMSO was run on each plate.
Activity of the enzyme in the absence of E2 was used to evaluate specificity of conversion. Enzyme activity in the presence of test samples was expressed as a percentage of the uninhibited enzyme in the presence of 1% DMSO vehicle only, and was plotted versus inhibitor concentration. Non-linear regression was performed using a four-parameter logistic model and GraphPad Prism software. All assessments were undertaken in duplicate evaluations.

Another assay addresses HSD17B13 (Homo sapiens (Human), UniProt Q7Z5P4). Description: LC/MS estrone detection assay for HSD17B13 activity (estradiol to estrone). To be noted: estradiol substrate, LCMS; read-out: HSD17B13 Inhibition_Estradiol Substrate_LCMS: Ki. Summed up: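 His-tagged E. coli-expressed enzyme (30 nM) with 4 μM estradiol and 6 mM NAD+ in potassium phosphate pH 7.4, 0.5% DMSO, 2 h at 26.5° C. Estrone formation quantified by LC-MS/MS against D4-estrone standard; activity as % of uninhibited, four-parameter fit, duplicates.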

For the next assay, the target named is HSD17B14 (Homo sapiens (Human), UniProt Q9BPX1). Description: LC/MS estrone detection assay for HSD17B14 activity (estradiol to estrone). To be noted: selectivity for HSD17B13 over HSD17B14. The protocol: The liquid chromatography/mass spectrometry (LC/MS) estrone detection assay monitors the conversion of estradiol to estrone by HSD17B14. This assay was undertaken in a 96 well plates (Eppendorf deep well), in an 80 μl reaction volume containing: 8 μM of estradiol (E2; Cayman); 4 mM NAD+(Sigma); 120 nM HSD17B14 enzyme (in-house E. coli expressed His-tagged, purified, soluble protein); 1M potassium phosphate buffer pH 7.4, and 1.2% vehicle (DMSO). Reactions were incubated for 2 hours at 37° C. Estradiol (E2) conversion to estrone (E1) was quantitated by LC-MS/MS based analyte detection for E1 using LCMS grade reagents.
Sequence of HSD17B14 (Q9BPX1 whole entry): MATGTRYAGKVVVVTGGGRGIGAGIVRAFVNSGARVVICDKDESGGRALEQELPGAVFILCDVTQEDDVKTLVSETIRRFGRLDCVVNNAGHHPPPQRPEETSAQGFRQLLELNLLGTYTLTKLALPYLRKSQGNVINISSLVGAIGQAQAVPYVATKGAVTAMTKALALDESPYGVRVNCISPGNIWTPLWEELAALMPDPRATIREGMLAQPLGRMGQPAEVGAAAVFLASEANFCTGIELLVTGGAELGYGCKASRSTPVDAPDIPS
Reactions were terminated by the addition of two volumes of acetonitrile (MeCN; LCMS grade) containing deuterated (D4)-E1 used as internal standard (Clear Synth; 500 ng/mL final concentration). Samples were applied to pre-prepared Bond Elut-C18 extraction cartridges (3 mL; Agilent). The cartridges were washed with 1.5 mL water followed by 1.5 mL 5% aqueous methanol, and dried for 5 minutes under vacuum. They were then eluted with 4.5 mL MeCN. The eluates were dried under nitrogen and re-suspended in 200 μL of 60% methanol (LCMS grade) before submission for analysis. Standard curves of E2 and E1 in 4% DMSO were included for quantification.
Analysis of samples was performed on a XBridge BEH C18 column (Waters) using 0.1% Diethyl Amine in MeCN (mobile phase A) and 0.1% Diethyl Amine in milli-Q water (mobile phase B) in a 3 min gradient from 0-25% B. Analytes were detected in negative mode using MRM analysis, with E2 having a RT of 1.89 min and E1 having a RT of 2.07 min. Activity of the enzyme in the absence of NAD+ was used to evaluate specificity of conversion. Enzyme activity in the presence of test samples was expressed as a percentage of the uninhibited enzyme in the presence of 1.2% DMSO vehicle only, and plotted versus inhibitor concentration. Non-linear regression was performed using a four-parameter logistic model and GraphPad Prism software. All assessments were undertaken in duplicate evaluations, which were pooled during the extraction process and subsequently injected as duplicates for LC-MS/MS analysis.

What is called Ki is a measure of affinity in units of concentration, obtained from inhibition or displacement.

Molecules are shown by their SMILES.

Sequence of HSD17B2 (P37059 whole entry): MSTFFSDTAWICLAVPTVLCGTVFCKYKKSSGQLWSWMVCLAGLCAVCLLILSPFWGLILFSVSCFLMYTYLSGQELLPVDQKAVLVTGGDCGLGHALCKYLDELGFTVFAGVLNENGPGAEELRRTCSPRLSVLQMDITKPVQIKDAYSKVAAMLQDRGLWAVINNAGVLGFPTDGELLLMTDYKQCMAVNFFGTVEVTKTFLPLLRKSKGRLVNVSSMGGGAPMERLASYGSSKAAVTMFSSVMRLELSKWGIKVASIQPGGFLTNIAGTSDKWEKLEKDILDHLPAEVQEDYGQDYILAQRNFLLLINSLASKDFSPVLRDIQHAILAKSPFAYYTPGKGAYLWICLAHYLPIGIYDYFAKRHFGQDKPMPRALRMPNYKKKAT
Sequence of HSD17B13 (Q7Z5P4 20-300): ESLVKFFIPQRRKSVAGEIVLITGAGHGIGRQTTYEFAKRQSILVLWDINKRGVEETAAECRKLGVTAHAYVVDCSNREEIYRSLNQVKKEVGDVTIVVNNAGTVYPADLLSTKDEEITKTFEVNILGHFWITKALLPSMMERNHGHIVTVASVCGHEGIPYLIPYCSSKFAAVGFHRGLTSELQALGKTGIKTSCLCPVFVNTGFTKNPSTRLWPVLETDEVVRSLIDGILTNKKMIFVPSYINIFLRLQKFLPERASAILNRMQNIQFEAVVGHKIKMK

`Cn1cc(-c2nc(C(=O)NCc3ccccc3C(F)(F)F)c(NC(=O)c3cc(Cl)c(O)c(Cl)n3)s2)cn1` [Example 66] displayed an HSD17B2 fold selectivity at HSD17B2 of 36 fold. Further, at HSD17B13, the Ki was 50 to 100 nM.
Compound `O=C(Nc1sc(-c2ccccc2F)nc1C(=O)NCc1ccccc1C(F)(F)F)c1cc(Cl)c(O)c(Cl)c1` [Example 63] registered an HSD17B2 fold selectivity at HSD17B2 of 192 fold. In addition, the Ki on HSD17B13 was no more than 50 nM.
The matching figures for `O=C(Nc1sc(C2=CCCCC2)nc1C(=O)NCc1ccccc1C(F)(F)F)c1cc(Cl)c(O)c(Cl)n1` [Example 88]: 53 fold and no more than 50 nM.
Consider `CS(=O)(=O)c1ccccc1-c1nc(C(=O)NCc2ccccc2C(F)(F)F)c(NC(=O)c2cc(Cl)c(O)c(Cl)c2)s1` [Example 91], for which the HSD17B2 fold selectivity at HSD17B2 turned out to be 24 fold. Besides, the Ki on HSD17B13 was in the range of 50 to 100 nM. Further, the HSD17B14 fold selectivity on HSD17B14 is given as 76 fold.
`O=C(Nc1sc(-c2cncc(F)c2)nc1C(=O)NCc1ccccc1C(F)(F)F)c1cc(F)c(O)c(Cl)c1` [Example 90] registered an HSD17B2 fold selectivity at HSD17B2 of 107 fold. On HSD17B13, the Ki is no more than 50 nM. Also, the HSD17B14 fold selectivity at HSD17B14 is recorded as greater than 797 fold.
The matching figures for `O=C(Nc1sc(-c2cccnc2)nc1C(=O)NCc1ccccc1C(F)(F)F)c1cc(Cl)c(O)c(Cl)c1` [Example 61]: 64 fold, no more than 50 nM and greater than 397 fold.
The like results for `CN(C)Cc1ccc(F)c(-c2nc(C(=O)NCc3ccccc3C(F)(F)F)c(NC(=O)c3cc(F)c(O)c(Cl)c3)s2)c1` [Example 94] were, in that order, 1270 fold, no more than 50 nM and greater than 1250 fold.
The matching figures for `CS(=O)(=O)c1ccc(-c2nc(C(=O)NCc3ccccc3C(F)(F)F)c(NC(=O)c3cc(Cl)c(O)c(Cl)n3)s2)cc1` [Example 73]: 175 fold, no more than 50 nM and greater than 646 fold.
Turning to `O=C(Nc1sc(-c2ccccc2Cl)nc1C(=O)NCc1ccccc1C(F)(F)F)c1cc(Cl)c(O)c(Cl)c1` [Example 65], at HSD17B2, the HSD17B2 fold selectivity is on record as 225 fold. The inhibition constant Ki on HSD17B13 was no more than 50 nM.
On HSD17B2, `O=C(Nc1sc(-c2ccccc2Cl)nc1C(=O)NCc1ccccc1C(F)(F)F)c1cc(Cl)c(O)c(Cl)n1` [Example 67] returned an HSD17B2 fold selectivity of 513 fold. Further, the Ki at HSD17B13 is no more than 50 nM.
`O=C(Nc1sc(-c2cncnc2)nc1C(=O)NCc1ccccc1C(F)(F)F)c1cc(Cl)c(O)c(Cl)n1` [Example 68]: the HSD17B2 fold selectivity on HSD17B2 is recorded as 48 fold. The Ki at HSD17B13 was in the range of 50 to 100 nM.
`CS(=O)(=O)c1ccc(-c2nc(C(=O)NCc3ccccc3C(F)(F)F)c(NC(=O)c3cc(Cl)c(O)c(Cl)c3)s2)cc1` [Example 104] displayed an HSD17B2 fold selectivity at HSD17B2 of 444 fold. Also, at HSD17B13, the Ki was no more than 50 nM. This compound also returned an HSD17B14 fold selectivity at HSD17B14 of 357 fold.
Regarding `O=C(Nc1sc(-c2ccccc2F)nc1C(=O)NCc1ccccc1C(F)(F)F)c1cc(F)c(O)c(Cl)c1` [Example 64], at HSD17B2, the HSD17B2 fold selectivity is reported as 115 fold. For the same compound, the Ki on HSD17B13 was no more than 50 nM. In addition, the HSD17B14 fold selectivity on HSD17B14 was greater than 855 fold.
`O=C(Nc1sc(-c2ccccc2)nc1C(=O)NCc1ccccc1C(F)(F)F)c1cc(Cl)c(O)c(Cl)c1` [Example 62] yielded an HSD17B2 fold selectivity on HSD17B2 of 204 fold. Moreover, the Ki at HSD17B13 is no more than 50 nM.
With `N#Cc1cccc(-c2nc(C(=O)NCc3ccccc3C(F)(F)F)c(NC(=O)c3cc(F)c(O)c(Cl)c3)s2)c1` [Example 96], the HSD17B2 fold selectivity at HSD17B2 was determined as 985 fold. The Ki at HSD17B13 is no more than 50 nM. In addition, at HSD17B14, the HSD17B14 fold selectivity is listed as greater than 2000 fold.
`O=C(Nc1sc(N2CCS(=O)(=O)CC2)nc1C(=O)NCc1ccccc1C(F)(F)F)c1cc(Cl)c(O)c(Cl)n1` [Example 78, 5-(4,6-dichloro-5-hydroxypicolinamido)-2-(1,1-dioxidothiomorpholino)-N-(2-(trifluoromethyl)benzyl)thiazole-4-carboxamide] came in with an HSD17B2 fold selectivity at HSD17B2 of 10 fold. In addition, the Ki at HSD17B13 was in the range of 50 to 100 nM. For the same compound, the HSD17B14 fold selectivity on HSD17B14 was greater than 180 fold.
The matching figures for `CS(=O)(=O)c1ccccc1-c1nc(C(=O)NCc2ccccc2C(F)(F)F)c(NC(=O)c2cc(Cl)c(O)c(Cl)n2)s1` [Example 92]: 44 fold, 50 to 100 nM and greater than 215 fold.
The like results for `N#Cc1cccc(-c2nc(C(=O)NCc3ccccc3C(F)(F)F)c(NC(=O)c3cc(Cl)c(O)c(Cl)c3)s2)c1` [Example 95] were, in that order, 2150 fold, no more than 50 nM and greater than 1640 fold.
Compound `O=C(Nc1sc(-c2ccncc2)nc1C(=O)NCc1ccccc1C(F)(F)F)c1cc(Cl)c(O)c(Cl)n1` [Example 70] showed an HSD17B2 fold selectivity on HSD17B2 of 107 fold. Besides, the Ki at HSD17B13 is no more than 50 nM.
